Patent US20140377259A1, “METHODS FOR INHIBITING HIV-1 REPLICATION INVOLVING THE ADMINISTRATION OF AN ANTI-CCR5 RECEPTOR MONOCLONAL ANTIBODY AND SMALL MOLECULE CCR5 RECEPTOR ANTAGONIST” (CytoDyn Inc., priority 2005, published 2014)
Like-named read-outs stand apart in the source and are kept apart here.

Legend:
[1] = test system: HIV-1 Env-mediated fusion (HeLa-EnvJRFL with CEM NKR-CCR5 cells); assay: HIV-1 RET cell-cell fusion assay (Part II, combination testing); assay type: cell-based; conditions: Drug 1 SCH-D with Drug 2 TAK-779, molar ratio 1:1
Experimental: Briefly, fluorescein octadecyl ester (F18; Molecular Probes, Eugene, Oreg.; 5 mg/ml in ethanol), was diluted 1:800 in DMEM labeling medium (DMEM; Invitrogen, Carlsbad, Calif.) with 10% fetal bovine serum (FBS; HyClone, Logan, Utah) and adjusted to an A506 of 0.34±10%. Octadecyl rhodamine B chloride (R18; Molecular Probes; 10 mg/ml in ethanol) was diluted 1:2050 in labeling medium and adjusted to an A565 of 0.52±10%. Both dyes were further diluted 2-fold by addition to cells in T75-cm^2 flasks. HeLa-EnvJRFL and CEM NKR-CCR5 cells were incubated overnight in F18- and R18-containing culture medium, respectively. […] The centrifugation/wash step was repeated twice, after which the cells were counted and concentrations adjusted to 1.5×10^6 cells/ml. […] The plates were then read on a fluorescence plate reader (Victor^2, Perkin Elmer, Boston, Mass.) using the excitation/emission filter combinations shown in Table 6.
The “% RET” was calculated according to the following formula after subtraction of background (blank) readings: […]
The “% Inhibition” was calculated according to the following formula: […]
Fifty percent inhibition (IC50) values were determined by fitting the inhibition data with a non-linear, four-parameter, variable slope equation (GraphPad Prism, 4.02; GraphPad Software, San Diego, Calif.). […]

[2] = test system: reporter virus pseudotyped with HIV-1JR-FL envelope; assay type: cell-based
Experimental: (§1) Cultures were incubated for 72 h at 37° C. in DMEM containing 10% fetal bovine serum, 1 mg/mL puromycin, 0.3 mg/mL geneticin, antibiotics, and 0.5% DMSO. Luciferase activity (relative light units or RLU) was measured using BrightGlo reagent (Promega, Madison, Wis.) according to the manufacturer's instructions. Percent inhibition was calculated as: (1−RLU in the presence of inhibitor/RLU in the absence of inhibitor)×100.
(§2) Experimental design and data analysis were based on the combination index (CI) method (Chou et al. 1991; Chou et al. 1984). Compounds were tested individually and in combination at a fixed molar ratio over a range of serial dilutions. […] The mutually exclusive CI formula was used for combinations of CCR5 inhibitors, while the mutually non-exclusive formula was utilized for combinations of inhibitors to distinct targets (Chou et al. 1991). Each test was conducted 4-12 times. Synergy, additivity and antagonism are indicated by CI<1, CI=1 and CI>1, respectively.

[3] = test system: reporter virus pseudotyped with HIV-1SF162 envelope; assay type: cell-based; conditions: 2nd inhibitor PRO 140, equimolar, 1:10 PRO 140 to zidovudine or nevirapine
Experimental: as §1, §2

[4] = target: T1, CCR5 (Homo sapiens, UniProt P51681); assay: Competition binding: inhibition of PRO 140-PE binding to CEM.NKR-CCR5 cells (flow cytometry); conditions: for Inhibition of PRO 140-PE binding: unlabeled inhibitor pre-incubated 30 min, 5 nM PRO 140-PE
T1 construct: host or cells: CEM.NKR (human T cell leukemia line), transduced with CCR5
T1 sequence (P51681 whole entry): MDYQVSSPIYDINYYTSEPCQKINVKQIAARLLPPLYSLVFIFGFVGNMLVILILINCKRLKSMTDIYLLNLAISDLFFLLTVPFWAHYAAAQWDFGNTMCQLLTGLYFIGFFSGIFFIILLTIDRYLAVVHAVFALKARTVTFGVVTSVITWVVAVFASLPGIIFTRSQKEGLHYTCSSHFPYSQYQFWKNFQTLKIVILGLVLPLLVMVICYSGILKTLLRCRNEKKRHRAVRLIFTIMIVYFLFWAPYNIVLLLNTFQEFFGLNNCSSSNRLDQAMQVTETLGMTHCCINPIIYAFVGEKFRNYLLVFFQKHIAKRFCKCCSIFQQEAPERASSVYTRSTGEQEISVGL
Experimental: Inhibition was assessed on the basis of both MFI (A) and percent cells gated (B).
Azide was added to block CCR5 internalization during the assay.

[5] = target: T1, CCR5; assay: Competition binding: inhibition of 3H-UK-427,857 binding to CEM.NKR-CCR5 cells
From the text: Cells were washed and then analyzed for radioactivity by scintillation counting.
The cells were washed in PBSA and lysed with 0.5N HCl prior to scintillation counting using a Wallac 1410 instrument.

[6] = test system: AD101- and SCH-D-resistant HIV-1 variants; conditions: primary CD4+ T-cells; cited from earlier work
[7] = test system: HIV-1; conditions: cited from earlier work
[8] = single administration of solution; cited from earlier work
[9] = in vivo; cited from earlier work
[10] = test system: HIV-1JR-FL envelope-mediated membrane fusion; assay type: cell-based
From the text: HIV-1 envelope-mediated membrane fusion was examined using a fluorescence resonance energy transfer (RET) assay (Litwin et al. 1996) with modifications. Briefly, HeLa cells that stably express HIV-1JR-FL gp120/gp41 (Litwin et al. 1996) and CEM.NKR-CCR5 cells (NIH AIDS Research and Reference Reagent Program, (Spenlehauer et al. 2001; Trkola et al. 1999)) were labeled separately overnight with fluorescein octadecyl ester (F18; Molecular Probes, Eugene, Oreg.) and rhodamine octadecyl ester (R18; Molecular Probes), respectively. […] The CD4 mAb Leu3a was used as a control inhibitor, and percent inhibition was calculated as: (RET in the absence of inhibitor−RET in the presence of inhibitor)/(RET in the absence of inhibitor−RET in the presence of Leu3a)×100.
as §2
Twenty-two synergy comparisons (11 compounds×2 CI values) were made based on data generated in the membrane fusion assay, resulting in a corrected P value of 0.0023.

[11] = set-up: species or system human; conditions: in vivo
Experimental: At the indicated times post-treatment, serum was collected, cryopreserved, and analyzed for PRO 140 levels. Data for individual patients are indicated.
Sera were diluted as appropriate and combined with L1.2-CCR5 cells, which are mouse pre-B lymphoma cells engineered to stably express human CCR5. […] Following incubation with test samples, cells were washed and combined with a FITC-labeled sheep antibody against human IgG4 (The Binding Site Limited, Cat. #AF009). Cells were washed again and analyzed by flow cytometry.
Serum was collected post-treatment, cryopreserved, and analyzed for PRO 140 levels. Peak serum concentrations ranged to […] at 0.1 mg/kg and […] at 0.5 mg/kg.

[12] = test system: CCR5 lymphocytes; assay type: in vivo, human
Experimental: At the indicated times post-treatment, blood was collected and analyzed for CCR5 lymphocyte levels. The group mean values and standard deviations are indicated.
Whole blood specimens were combined separately with the indicated phycoerythrin-labeled anti-CCR5 antibodies or with appropriate isotype-control antibodies. Erythocytes were lysed and leukocytes were stabilized using the ImmunoPrep Reagent System (Beckman Coulter), and the cells were analyzed on a TQ Prep™ flow cytometry workstation (Beckman Coulter). Data were expressed as the percent of CCR5 cells relative to all cells gated in the analysis.
For up to 60 days post-treatment, at the times indicated in FIG. 6, blood was collected and analyzed for CCR5 lymphocyte levels.

[13] = target: T1, CCR5; assay: RANTES-induced calcium mobilization in L1.2-CCR5 cells; assay type: cell-based; conditions: FIG. 4
From the text: Similar results were obtained for […] and MIP-1β.

[14] = test system: HIV-1JR-CSF; assay: hu-PBL-SCID mouse model of HIV-1 infection; assay type: in vivo, SCID mice; conditions: multiple doses after steady state viral levels
Experimental: SCID mice were reconstituted with normal human peripheral blood mononuclear cells and infected 2 weeks later with HIV-1JR-CSF. Multiple doses of PRO 140 were administered following attainment of steady state viral levels. Plasma viral loads pre- and post-injection are indicated.

[15] = envelope JRFL, 2nd inhibitor PRO 140, equimolar, 1:10 PRO 140 to zidovudine or nevirapine
[16] = labelled 1st inhibitor with 2nd inhibitor PRO 140, equimolar
[17] = labelled 1st inhibitor with 2nd inhibitor UK-427,857, equimolar

COC[C@@H](c1ccc(C(F)(F)F)cc1)N1CCN(C2(C)CCN(C(=O)c3c(C)ncnc3C)CC2)C[C@@H]1C [SCH-D, 1-[(4,6-dimethyl-5pyrimidinyl)carbonyl]-4 [4-[2-methoxy-1(R)-4-(trifluoromethyl)phenyl]ethyl-3 (S)-methyl-1-piperazinyl]-4-methylpiperidine]
Mean DR (Drug 2) [1]: 4.31 ± 1.82
CI50 [2, 15]: 0.47 ± 0.15
CI90 [2, 15]: 0.18 ± 0.04
CI50 [3]: 0.60 ± 0.17
CI90 [3]: 0.28 ± 0.11
Effect on percent of cells gated for positive binding of PRO 140-PE ([4]; FIG. 16B): little impact
Inhibition of PRO 140-PE binding [4]: modest levels of inhibition
Displacement of pre-bound 3H-UK-427,857 by unlabeled compound [5]: wasn't displaced
Sensitivity of SCH-D-resistant HIV-1 variant [6]: resistant

CCCCOCCOc1ccc(-c2ccc3c(c2)/C=C(/C(=O)Nc2ccc(OCc4cncn4CCC)cc2)CCCN3CC(C)C)cc1 [TAK-652]
Anti-HIV-1 activity in vitro [7]: nanomolar range
Safety and tolerability [8]: safe and well tolerated
Oral bioavailability [9]: orally bioavailable

RANTES: CC-chemokine that serves as a natural ligand for CCR5
CI50 [10, 16]: 0.59 ± 0.08
CI90 [10, 16]: 0.43 ± 0.05
CI50 [10, 17]: 0.48 ± 0.03
CI90 [10, 17]: 0.18 ± 0.01

CCO/N=C(\c1ccc(Br)cc1)C1CCN(C2(C)CCN(C(=O)c3c(C)cc[n+]([O-])c3C)CC2)CC1 [SCH-C]
Sensitivity of AD101-resistant HIV-1 variant [6]: resistant

Cc1ccc(-c2ccc3c(c2)C=C(C(=O)Nc2ccc(C[N+](C)(C)C4CCOCC4)cc2)CCC3)cc1.[Cl-] [TAK-779]
Inhibition of HIV-1 pseudovirus entry ([2]; compound alone, data not shown): Neither TAK-779 nor RANTES mediated consistent, high-level inhibition
Oral bioavailability [9]: poor oral bioavailability

B1: PRO 140: humanized IgG4,κ anti-CCR5 monoclonal antibody, humanized version of murine mAb PA14 (antibody, chains of the INN, looked up, V domains shown)
VH: EVQLVESGGGLVKPGGSLRLSCAASGYTFSNYWIGWVRQAPGKGLEWIGDIYPGGNYIRNNEKFKDKTTLSADTSKNTAYLQMNSLKTEDTAVYYCGSSFGSNYVFAWFTYWGQGTLVTVSS
VL: DIVMTQSPLSLPVTPGEPASISCRSSQRLLSSYGHTYLHWYLQKPGQSPQLLIYEVSNRFSGVPDRFSGSGSGTDFTLKISRVEAEDVGVYYCSQSTHVPLTFGQGTKVEIK
Inhibition of PRO 140-PE binding [4]: Complete inhibition
Displacement of pre-bound 3H-UK-427,857 by unlabeled compound ([5]; cells pre-incubated with 2 nM 3H-UK-427,857, unlabeled compound 30 min): wasn't displaced
Dose dependence of serum concentrations [11]: increased proportionally with dose level
Overall number of CCR5 lymphocytes (CTC5 binding) ([12]; in vivo, iv, 2 mg/kg): no decrease
Binding of antibody 2D7 (CCR5 lymphocytes not coated with PRO 140) ([12]; single 2 mg/kg intravenous infusion): significantly decreased
Effect on RANTES-induced calcium mobilization versus HIV-1JR-FL replication in PBMC [13]: blocks HIV-1 but not chemokine signaling
Control of viral replication (plasma viral load) [14]: prolonged control of viral replication
